Laboratory results published in patent US8202908B1, “D-aspartic acid supplement” (priority 2008, dated 2012).

What was measured:
adult male humans = test: Oral DL-aspartic acid given to adult male humans for 21 days, blood hormone levels; assay type: in vivo, human; settings: adult males aged twenty to sixty; 10, 20 or 40 grams DL-aspartic acid per day orally in two doses for twenty-one days; versus baseline
Method: This example illustrates the effects of administering D-aspartic acid to adult male humans.
A group of nine adult males ranging in age from twenty to sixty is divided into three groups of three men each. The division is made so that each group contains a similar age distribution. Blood samples are taken and the levels of testosterone, growth hormone, and insulin-like growth factor 1 are measured.
The men in the first group orally ingest 10 grams of DL-aspartic acid (which includes 5 grams of D-aspartic acid) daily for twenty-one days. The amount is divided into two equal doses, one of which is taken in the morning and one of which is taken in the evening. The men in the second and third groups follow a similar procedure except the men in the second group orally ingest 20 grams of DL-aspartic acid (which includes 10 grams of D-aspartic acid) per day and the men in the third group orally ingest 40 grams of DL-aspartic acid (which includes 20 grams of D-aspartic acid) per day. Blood samples are then retaken.

pituitary = settings: both in-vitro and in-vivo; cited from earlier work
testes = settings: both in-vitro and in-vivo; cited from earlier work
animals = settings: cited from earlier work
pituitary gland = settings: both in-vitro and in-vivo; cited from earlier work
finishing pigs = finishing pigs fed with N-methyl-D-aspartate; cited from earlier work

Compound	level of growth hormone in blood (adult male humans)	level of insulin-like growth factor 1 in blood (adult male humans)	level of testosterone in blood (adult male humans)	release of luteinizing hormone from the pituitary (pituitary)	release of testosterone from the testes (testes)	growth hormone levels in the animals (animals)	testosterone levels in the animals (animals)	growth hormone production from the pituitary gland (pituitary gland)	growth rate (finishing pigs)
NC(CC(=O)O)C(=O)O (racemic) [DL-aspartic acid]	significant increases	significant increases	significant increases	–	–	–	–	–	–
N[C@H](CC(=O)O)C(=O)O [D-aspartic acid]	–	–	–	stimulate the release	stimulate the release	increase	increase	stimulate growth hormone production	–
CN[C@H](CC(=O)O)C(=O)O [N-methyl-D-aspartate]	–	–	–	–	–	increase	increase	stimulate growth hormone production	increase in growth rate
